Like-named read-outs stand apart in the source and are kept apart here.

These results are taken from patent US9265253B2, “Use of macrocyclic picolinamides as fungicides” (DOW AGROSCIENCES LLC, priority 2013, dated 2016).

Test [1] relates to Mycosphaerella graminicola; Anamorph: Septoria tritici. Nature of the test: Leaf Blotch of Wheat (SEPTTR) disease control. The format is in vivo. Conditions: Zymoseptoria tritici; for pest or weed control at 121.5 g/ha: rate 121.5 g/H; for pest or weed control at 100 ppm: rate 100 ppm. On the procedure:
(§1) Technical grades of materials were dissolved in acetone, which were then mixed with nine volumes of water containing 110 ppm Triton X-100. The fungicide solutions were applied onto wheat seedlings using an automated booth sprayer to run-off. All sprayed plants were allowed to air dry prior to further handling. All fungicides were evaluated using the aforementioned method for their activity vs. all target diseases. Wheat leaf blotch and brown rust activity were also evaluated using track spray applications, in which case the fungicides were formulated as EC formulations, containing 0.1% Trycol 5941 in the spray solutions. Wheat plants (variety Yuma) were grown from seed in a greenhouse in 50% mineral soil/50% soil-less Metro mix until the first leaf was fully emerged, with 7-10 seedlings per pot. These plants were inoculated with an aqueous spore suspension of Septoria tritici either prior to or after fungicide treatments. After inoculation the plants were kept in 100% relative humidity (one day in a dark dew chamber followed by two to three days in a lighted dew chamber at 20° C.) to permit spores to germinate and infect the leaf. The plants were then transferred to a greenhouse set at 20° C. for disease to develop. When disease symptoms were fully expressed on the 1st leaves of untreated plants, infection levels were assessed on a scale of 0 to 100 percent disease severity. Percent disease control was calculated using the ratio of disease severity on treated plants relative to untreated plants.

Test [2] deals with Puccinia triticina; Synonym: Puccinia recondite f. Sp. Tritici. Nature of the test: Wheat Brown Rust (PUCCRT) disease control. It counts as in vivo. Conditions: Puccinia triticina, topical; for pest or weed control at 121.5 g/ha: rate 121.5 g/H; for pest or weed control at 100 ppm: rate 100 ppm. The method, then:
as §1, with “plants. Wheat plants (variety Yuma) were grown from seed in a greenhouse in 50% mineral soil/50% soil-less Metro mix until the first leaf was fully emerged, with 7-10 seedlings per pot. These plants were inoculated with an aqueous spore suspension of Puccinia triticina either prior to or after fungicide treatments. After inoculation the plants were kept in a dark dew room at 22° C. with 100% relative humidity overnight to permit spores to germinate and infect the leaf. The plants were then transferred to a greenhouse set at 24° C. for disease to develop. Fungicide formulation, application and disease assessment followed the procedures as described in the Example A.” for “plants.”

The mark [3] stands for this setting: 24 h, 1 Day Protectant, read-out: SEPTTR 1 DP disease control.
Where [4] appears, read: 72 h, 3 Day Curative, read-out: SEPTTR 3 DC disease control.
Setting [5] is: 24 h, 1 Day Protectant, read-out: PUCCRT 1 DP disease control.
[6] abbreviates: 72 h, 3 Day Curative, read-out: PUCCRT 3 DC disease control.

As for `COc1ccnc(C(=O)N[C@H]2CCC[C@H](Cc3ccco3)[C@@H](OCC(C)C)[C@H](C)OC2=O)c1OCOC(C)=O` [Compound F120], the pest or weed control at 121.5 g/ha in test [1] (setting [3]) was in the range of 80 to 100%; in test [1] (setting [4]) it was 0 to 80%; in test [2] (setting [5]) it was 80 to 100%.

`COc1ccnc(C(=O)N[C@H]2CCC[C@H](CC3CCCC3)[C@@H](Oc3ccccc3)[C@H](C)OC2=O)c1O` [Compound F27]: the pest or weed control at 100 ppm in test [1] (setting [3]), in test [1] (setting [4]), in test [2] (setting [5]) and in test [2] (setting [6]) was 80 to 100% in each case.

For `COc1ccnc(C(=O)N[C@H]2CCC[C@H](CCOCC3CC3)[C@@H](OCC3CC3)[C@H](C)OC2=O)c1OCOC(C)=O` [Compound F140], the pest or weed control at 100 ppm was in the range of 80 to 100% in test [1] (setting [3]), 0 to 80% in test [1] (setting [4]), 80 to 100% in test [2] (setting [5]) and 80 to 100% in test [2] (setting [6]). Further, the pest or weed control at 121.5 g/ha in test [1] (setting [3]) fell in the range of 0 to 80%; in test [1] (setting [4]), 0 to 80%; in test [2] (setting [5]), 80 to 100%; in test [2] (setting [6]), 80 to 100%.

With `CCOCC(=O)Oc1c(OC)ccnc1C(=O)N[C@H]1CCC[C@H](CCOC)[C@@H](Oc2ccccc2)[C@H](C)OC1=O` [Compound F186], the pest or weed control at 100 ppm in test [1] (setting [3]), in test [1] (setting [4]), in test [2] (setting [5]) and in test [2] (setting [6]) was 80 to 100% in each case.

Regarding `COc1ccnc(C(=O)N[C@H]2CCC[C@H](CCC(C)C)[C@@H](OC3CCCC3)[C@H](C)OC2=O)c1OCOC(C)=O` [Compound F94], the pest or weed control at 100 ppm in test [1] (setting [3]), in test [1] (setting [4]), in test [2] (setting [5]) and in test [2] (setting [6]) was 80 to 100% each time.

As to `COc1ccnc(C(=O)N[C@H]2CCC[C@H](CCOCC3CC3)[C@@H](OCC3CC3)[C@H](C)OC2=O)c1OC(C)=O` [Compound F83], the pest or weed control at 100 ppm in test [1] (setting [3]), in test [2] (setting [5]) and in test [2] (setting [6]) was 80 to 100% throughout. Moreover, the pest or weed control at 121.5 g/ha lay within 0 to 80% in test [1] (setting [3]), 0 to 80% in test [1] (setting [4]), 80 to 100% in test [2] (setting [5]) and 80 to 100% in test [2] (setting [6]).

As for `COc1ccnc(C(=O)N[C@H]2CCC[C@H](CC3CCCC3)[C@@H](OCC(C)C)[C@H](C)OC2=O)c1OCOC(C)=O` [Compound F123], the pest or weed control at 100 ppm in test [1] (setting [3]), in test [1] (setting [4]), in test [2] (setting [5]) and in test [2] (setting [6]) was 80 to 100% each time. Besides, the pest or weed control at 121.5 g/ha in test [1] (setting [3]) lay within 80 to 100%; in test [1] (setting [4]), 80 to 100%; in test [2] (setting [5]), 80 to 100%; in test [2] (setting [6]), 0 to 80%.
